Patent US20210403485A1, “PYRAZOLOPYRIMIDINE DERIVATIVE AS SELECTIVE TRK INHIBITOR” (SHANDONG LUYE PHARMACEUTICAL CO., LTD., priority 2018, published 2021)

Assays:
[1] = Animal body weight and general observations, Ba/F3 ETV6-NTRK3 tumor-bearing nude mice; settings: 60 mg/kg qd
Method: (§3) The mice in groups were intragastrically administrated on the next day, and the animal body weight and the long and short diameters of the tumor were measured once every other day.

[2] = Animal body weight and general observations, Ba/F3 ETV6-NTRK3-G623R tumor-bearing nude mice; settings: 60 mg/kg qd
Method: as §3

[3] = Pharmacokinetic test of compounds in rats (plasma, LC/MS/MS); assay type: in vivo, male SD rats; settings: for AUC(0-t): read-out: Area under the curve AUC0-last
Method: (§1) Experimental purpose: male SD rats aged 7-9 weeks were selected as test animals, and the drug concentrations of the compounds in plasma at different time points after single intravenous injection (IV) and intragastric administration (PO) of the compounds were measured by an LC/MS/MS method, so that the pharmacokinetic behavior of the compounds disclosed herein in rats was studied, and the pharmacokinetic characteristic of the compounds was evaluated.
(§2) Drug preparation: the compounds were all prepared into clear solution by taking 5% DMSO+10% solutol+85% water as vehicle, and were used for administration in IV and PO groups. The dose of each compound administered was: IV, 3 mg/kg; PO, 10 mg/kg.

[4] = Pharmacokinetic test of compounds in mice (plasma, LC/MS/MS); assay type: in vivo, male CD-1 mice; settings: for AUC(0-t): read-out: Area under the curve AUC0-last
Method: as §1, with “CD-1 mice” for “SD rats”, “mice” for “rats”
as §2

- Apparent clearance Cl ([3]; IV, 3 mg/kg): 45.6 mL/min/kg
- Vd ([3]; male, SD, rat, plasma, IV, 3 mg/kg, read-out: Apparent volume of distribution Vd): 1.7 L/kg
- AUC(0-t) ([3]; male, SD, rat, plasma, IV, 3 mg/kg): 1.7 µM·h
- half-life ([3]; male, SD, rat, plasma, IV, 3 mg/kg, read-out: Half-life T1/2 (converted)): 36 min
- AUC(0-t) ([3]; male, SD, rat, plasma, PO, 10 mg/kg): 1.93 µM·h
- bioavailability ([3]; male, SD, rat, plasma, PO, 10 mg/kg, read-out: Bioavailability F %): 23%
- Cmax ([3]; male, SD, rat, plasma, PO, 10 mg/kg, read-out: Peak concentration Cmax): 944 nM
- Tmax ([3]; male, SD, rat, plasma, PO, 10 mg/kg, read-out: Time to peak Tmax): 48 min
- Apparent clearance Cl ([4]; IV, 3 mg/kg): 37.4 mL/min/kg
- Vd ([4]; male, CD-1, mouse, plasma, IV, 3 mg/kg, read-out: Apparent volume of distribution Vd): 0.97 L/kg
- AUC(0-t) ([4]; male, CD-1, mouse, plasma, IV, 3 mg/kg): 3.12 µM·h
- half-life ([4]; male, CD-1, mouse, plasma, IV, 3 mg/kg, read-out: Half-life T1/2 (converted)): 23.4 min
- AUC(0-t) ([4]; male, CD-1, mouse, plasma, PO, 10 mg/kg): 2.89 µM·h
- bioavailability ([4]; male, CD-1, mouse, plasma, PO, 10 mg/kg, read-out: Bioavailability F %): 28%
- Cmax ([4]; male, CD-1, mouse, plasma, PO, 10 mg/kg, read-out: Peak concentration Cmax): 1550 nM
- Tmax ([4]; male, CD-1, mouse, plasma, PO, 10 mg/kg, read-out: Time to peak Tmax): 22.8 min
Compound: O=C(Nc1cnn2ccc(N3CCC[C@@H]3c3cc(F)ccc3F)nc12)N1CC[C@H](O)C1 [LOXO-101, larotrectinib, reference compound]
- Rate of change in body weight (%) of day 11 to day 0 [1]: 4.4%
- Body weight ([1]; Day 0): 23.8 ± 1.6 g
- Body weight ([1]; Day 3): 22.9 ± 2.0 g
- Body weight ([1]; Day 5): 23.6 ± 2.2 g
- Body weight ([1]; Day 7): 23.9 ± 2.5 g
- Body weight ([1]; Day 9): 24.2 ± 2.2 g
- Body weight ([1]; Day 11): 24.7 ± 2.7 g
- Rate of change in body weight (%) of day 11 to day 0 [2]: 6.8%
- Body weight ([2]; Day 0): 23.9 ± 1.4 g
- Body weight ([2]; Day 3): 24.2 ± 1.8 g
- Body weight ([2]; Day 5): 24.1 ± 2.0 g
- Body weight ([2]; Day 7): 25.0 ± 2.2 g
- Body weight ([2]; Day 9): 25.3 ± 2.2 g
- Body weight ([2]; Day 11): 25.6 ± 2.4 g
